system: Bovine cardiac myofibrils; assay: In vitro model of dose-dependent myofibril ATPase modulation (AC1.4, pyruvate kinase/lactate dehydrogenase-coupled ATPase assay at pCa25); assay type: biochemical; conditions: concentration at which ATPase activity was 1.4-fold higher than the bottom of the dose curve, mean of a minimum of two independent tests
In short: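 Compound dilutions were premixed with myofibrils, coupling enzymes, EGTA and CaCl2, then the reaction was started with an equal volume carrying ATP (final 1 mM), NADH and PEP. ATP turnover was followed at 340 nm, and dose responses were fit to a four-parameter equation.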

AC1.4 [µM] | SMILES
2.9638 | O=C(NCc1ccc(C(F)(F)F)cc1)[C@H]1CCCN1C(=O)c1cccc(S(=O)(=O)N2CC[C@@H](O)C2)c1 [Example 560, 1-((3-(((3R)-3-hydroxy-1-pyrrolidinyl)sulfonyl)phenyl)carbonyl)-N-(4-(trifluoromethyl)benzyl)-D-prolinamide,1-((3-(((3S)-3-hydroxy-1-pyrrolidinyl)sulfonyl)phenyl)carbonyl)-N-(4-(trifluoromethyl)benzyl)-D-prolinamide]
2.9935 | N#CC1CN(S(=O)(=O)N2CCC[C@H](C(=O)N3CCC[C@@H]3C(=O)N[C@@H](CO)c3ccc(C(F)(F)F)cc3)C2)C1 [Example 561, 1-(((3S)-1-((3-cyano-1-azetidinyl)sulfonyl)-3-piperidinyl)carbonyl)-N-((1R)-2-hydroxy-1-(4-(trifluoromethyl)phenyl)ethyl)-D-prolinamide]
3.025 | O=C(NCc1ccc(C(F)(F)F)cc1)[C@H]1CCCN1C(=O)[C@H]1CCCN(S(=O)(=O)N2CC(n3ccnc3)C2)C1 [Example 562, 1-(((3S)-1-((3-(1H-imidazol-1-yl)-1-azetidinyl)sulfonyl)-3-piperidinyl)carbonyl)-N-(4-(trifluoromethyl)benzyl)-D-prolinamide]
3.1845 | Cc1ccccc1CNC(=O)[C@H]1CCCN1C(=O)[C@H]1CCCN(S(=O)(=O)N2CC(C#N)C2)C1 [Example 571, 1-(((3S)-1-((3-cyano-1-azetidinyl)sulfonyl)-3-piperidinyl)carbonyl)-N-(2-methylbenzyl)-D-prolinamide]
3.2325 | N#CC1CN(S(=O)(=O)N2CCC[C@H](C(=O)N3CCC[C@@H]3C(=O)NCc3ccccc3Cl)C2)C1 [Example 574, N-(2-chlorobenzyl)-1-(((3S)-1-((3-cyano-1-azetidinyl)sulfonyl)-3-piperidinyl)carbonyl)-D-prolinamide]
3.3545 | O=C(NCc1ccc(C(F)(F)F)cc1)[C@H]1CCCN1C(=O)[C@H]1CCCN(S(=O)(=O)N2CC(Oc3ccncc3)C2)C1 [Example 580, 1-(((3S)-1-((3-(4-pyridinyloxy)-1-azetidinyl)sulfonyl)-3-piperidinyl)carbonyl)-N-(4-(trifluoromethyl)benzyl)-D-prolinamide]
3.364 | N#CC1CN(S(=O)(=O)N2CCC[C@H](C(=O)N3C[C@@H](O)C[C@@H]3C(=O)NCc3ccc(C(F)(F)F)cc3)C2)C1 [Example 581, (4S)-1-(((3S)-1-((3-cyano-1-azetidinyl)sulfonyl)-3-piperidinyl)carbonyl)-4-hydroxy-N-(4-(trifluoromethyl)benzyl)-D-prolinamide]
3.371 | O=C(NCc1ccc(C(F)(F)F)cc1)[C@H]1CCCN1C(=O)[C@H]1CCCN(S(=O)(=O)N2CC(n3cccn3)C2)C1 [Example 582, 1-(((3S)-1-((3-(1H-pyrazol-1-yl)-1-azetidinyl)sulfonyl)-3-piperidinyl)carbonyl)-N-(4-(trifluoromethyl)benzyl)-D-prolinamide]
3.4385 | N#C[C@H]1C[C@H](S(=O)(=O)N2CCC[C@H](C(=O)N3CCC[C@@H]3C(=O)NCc3ccc(C(F)(F)F)cc3)C2)C1 [Example 587, 1-(((3S)-1-((trans-3-cyanocyclobutyl)sulfonyl)-3-piperidinyl)carbonyl)-N-(4-(trifluoromethyl)benzyl)-D-prolinamide]

Second part, the compound before the results:

SMILES | AC1.4 [µM]
CS(=O)(=O)c1ccc(F)c(C(=O)N2CCC[C@@H]2C(=O)N[C@@H](c2ccc(C(F)(F)F)cc2F)C2CC2)c1F [Example 563, N-((R)-cyclopropyl(2-fluoro-4-(trifluoromethyl)phenyl)methyl)-1-(2,6-difluoro-3-(methylsulfonyl)benzoyl)-D-prolinamide] | 2.8195
CCN(CC)S(=O)(=O)c1cccc(C(=O)N2CCC[C@@H]2C(=O)NCc2ccc(C(F)(F)F)cc2)c1 [Example 564, 1-(3-(diethylsulfamoyl)benzoyl)-N-(4-(trifluoromethyl)benzyl)-D-prolinamide] | 3.077
N#CC1CN(S(=O)(=O)N2CCC[C@H](C(=O)N3CCC[C@@H]3C(=O)N[C@H]3Cc4ccccc43)C2)C1 [Example 565, N-((7S)-bicyclo[4.2.0]octa-1,3,5-trien-7-yl)-1-(((3S)-1-((3-cyano-1-azetidinyl)sulfonyl)-3-piperidinyl)carbonyl)-D-prolinamide] | 3.077
NS(=O)(=O)c1ccc(F)c(C(=O)N2CCC[C@@H]2C(=O)N[C@@H](c2ccc(C(F)(F)F)cc2F)C2CC2)c1 [Example 566, N-((R)-cyclopropyl(2-fluoro-4-(trifluoromethyl)phenyl)methyl)-1-(2-fluoro-5-sulfamoylbenzoyl)-D-prolinamide] | 3.0845
CS(=O)(=O)c1ccc(C(=O)N2CCC[C@@H]2C(=O)NC(c2ccc(C(F)(F)F)cc2F)C2CC2)s1 (stereo partly drawn) [Example 567, (2R)-N-(cyclopropyl(2-fluoro-4-(trifluoromethyl)phenyl)methyl)-1-(5-(methylsulfonyl)thiophene-2-carbonyl)pyrrolidine-2-carboxamide] | 3.1075
CS(=O)(=O)c1ccc(C(=O)N2CCC[C@@H]2C(=O)NC(c2ccc(C(F)(F)F)cc2F)C2CC2)cn1 (stereo partly drawn) [Example 569, (2R)-N-(cyclopropyl(2-fluoro-4-(trifluoromethyl)phenyl)methyl)-1-(6-(methylsulfonyl)nicotinoyl)pyrrolidine-2-carboxamide] | 3.182
CS(=O)(=O)c1cccc(C(=O)N2[C@@H](C(=O)N[C@@H](c3cc(F)c(C#N)cc3F)C3CC3)C[C@H]3C[C@H]32)c1 [Example 570, (1R,3R,5R)-N-((R)-(4-cyano-2,5-difluorophenyl)(cyclopropyl)methyl)-2-(3-(methylsulfonyl)benzoyl)-2-azabicyclo[3.1.0]hexane-3-carboxamide] | 3.1825
C[C@@H](NC(=O)[C@H]1[C@@H]2C[C@@H]2CN1C(=O)c1cccc(S(=O)(=O)N(C)C)c1)c1ccc(C(F)(F)F)cc1 [Example 572, (1R,2R,5S)-3-(3-(dimethylsulfamoyl)benzoyl)-N-((1R)-1-(4-(trifluoromethyl)phenyl)ethyl)-3-azabicyclo[3.1.0]hexane-2-carboxamide] | 3.205
O=C(N[C@@H](c1ccc(C(F)(F)F)cc1F)C1CC1)[C@H]1C[C@H]2C[C@H]2N1C(=O)c1cc(C(F)(F)F)ccn1 [Example 573, (1R,3R,5R)-N-((R)-cyclopropyl(2-fluoro-4-(trifluoromethyl)phenyl)methyl)-2-((4-(trifluoromethyl)-2-pyridinyl)carbonyl)-2-azabicyclo[3.1.0]hexane-3-carboxamide] | 3.224
CN1CC(C(NC(=O)[C@H]2C[C@H]3C[C@H]3N2C(=O)c2cccc(S(C)(=O)=O)c2)c2ccc(C(F)(F)F)cc2F)CC1=O (stereo partly drawn) [Example 575, (1R,3R,5R)-N-((2-fluoro-4-(trifluoromethyl)phenyl)(1-methyl-5-oxopyrrolidin-3-yl)methyl)-2-(3-(methylsulfonyl)benzoyl)-2-azabicyclo[3.1.0]hexane-3-carboxamrde] | 3.245
CS(=O)(=O)c1cccc(C(=O)N2CCOC[C@@H]2C(=O)N[C@@H](c2ccc(C(F)(F)F)cc2F)C2CC2)c1 [Example 576, (3R)-N-((R)-cyclopropyl(2-fluoro-4-(trifluoromethyl)phenyl)methyl)-4-(3-(methylsulfonyl)benzoyl)-3-morpholinecarboxamide] | 2.838
O=C(N[C@@H](c1ccc(C(F)(F)F)cc1F)C1CC1)[C@H]1CCCN1C(=O)c1cccc(C2(F)COC2)c1 [Example 577, N—((R)-cyclopropyl(2-fluoro-4-(trifluoromethyl)phenyl)methyl)-1-(3-(3-fluoro-3-oxetanyl)benzoyl)-D-prolinamide] | 3.2945
CS(=O)(=O)c1cccc(C(=O)N2CCCC[C@@H]2C(=O)N[C@@H](c2ccc(C(F)F)cc2F)C2CC2)c1 [Example 578, (2R)-N-((R)-cyclopropyl(4-(difluoromethyl)-2-fluorophenyl)methyl)-1-(3-(methylsulfonyl)benzoyl)-2-piperidinecarboxamide] | 3.3475
COc1cccc(CNC(=O)[C@H]2CCCN2C(=O)[C@H]2CCCN(S(=O)(=O)N3CC(C#N)C3)C2)c1Cl [Example 583, N-(2-chloro-3-methoxybenzyl)-1-(((3S)-1-((3-cyano-1-azetidinyl)sulfonyl)-3-piperidinyl)carbonyl)-D-prolinamide] | 3.3715
CN(C)c1cccc(C(=O)N2CCC[C@@H]2C(=O)N[C@@H](c2ccc(C(F)(F)F)cc2F)C2CC2)c1 [Example 584, N-((R)-cyclopropyl(2-fluoro-4-(trifluoromethyl)phenyl)methyl)-1-(3-(dimethylamino)benzoyl)-D-prolinamide] | 3.397
COc1ccc(C(C)NC(=O)[C@H]2CCCN2C(=O)[C@H]2CCCN(S(=O)(=O)N3CC(C#N)C3)C2)cc1F (stereo partly drawn) [Example 585, 1-(((3S)-1-((3-cyano-1-azetidinyl)sulfonyl)-3-piperidinyl)carbonyl)-N-((1R)-1-(3-fluoro-4-methoxyphenyl)ethyl)-D-prolinamide,1-(((3S)-1-((3-cyano-1-azetidinyl)sulfonyl)-3-piperidinyl)carbonyl)-N-((1S)-1-(3-fluoro-4-methoxyphenyl)ethyl)-D-prolinamide] | 3.413
CS(=O)(=O)c1cccc(C(=O)N2CC[C@@H](F)[C@@H]2C(=O)N[C@@H](c2ccc(C(F)(F)F)cc2F)C2CC2)c1 [Example 589, (3R)-N-((R)-cyclopropyl(2-fluoro-4-(trifluoromethyl)phenyl)methyl)-3-fluoro-1-(3-(methylsulfonyl)benzoyl)-D-prolinamide] | 2.881

Reference: US11780826B2 (Amgen Inc., priority 2017, dated 2023)
